{
  "source": "patent US8629318B2",
  "about": "“Transgenic animals for analyzing CYP3A4 cytochrome P450 gene regulation” (University of Sydney, priority 2000, dated 2014)",
  "key": {"[1]": {"test_system": "−13CYP3A4/lacZ transgene", "test": "β-galactosidase activity in total liver lysates, ONPG assay, line 9/4", "type": "in vivo, mouse", "settings": "100 mg/kg i.p. daily for 4 days, FIG. 3A", "protocol": "(§1) Administration of xenobiotics to mice. 8-10 week old male and female mice hemizygous for the −CYP3A4/lacZ and −13CYP3A4/lacZ transgenes were used to test the ability of a range of xenobiotics and hormones to activate expression of transgene-derived β-galactosidase. […] The dose used for all reagents to test for induction of the transgene was 100 mg/kg body weight. Dose response studies were carried out in the range of 1-100 mg/kg with male hemizygous transgenic mice.\n(§2) Analysis of transgene and mouse Cyp3a gene expression. β-galactosidase activity was visualised in slices and frozen sections of liver and other tissues by staining with X-gal (5-bromo-4-chloro-3-indolyl-β-D-galactopyranoside). Tissues were fixed in 0.25% glutaraldehyde, 0.1 M phosphate buffer pH7.3, 5 mM EGTA, 2 mM MgCl2: washed in 0.1 M phosphate buffer pH7.3, 0.01% sodium deoxycholate, 0.025% NP40, 2 mM MgCl2 and stained by incubation at 37° C. in wash solution supplemented with 1 mg/ml X-gal, 5 mM potassium ferricyanide, and 5 mM potassium ferrocyanide. The level of β-galactosidase activity was determined in whole liver homogenates [100 mg fresh tissue/ml 0.25M Tris-HCl (pH 7.3)] using the O-nitrophenyl-β-D-galactopyranoside (ONPG) assay according to standard techniques. After appropriate dilution the homogenate was incubated with β-galactosidase assay reagent (0.1 M sodium phosphate buffer (pH7.3)/1 mM MgCl2/50 mmol β-mercaptoethanol/0.88 mg/ml ONPG) at 37° C., quenched by the addition of 1 M Na2CO3 and the absorbance at 420 nm determined. The units of β-galactosidase activity are given as A420/mg liver/minute."}, "[2]": {"test_system": "−13CYP3A4/lacZ transgene", "protocol": "as §1, §2"}, "[3]": {"test_system": "−13CYP3A4/lacZ transgene", "test": "Xenobiotic induction of transgene expression in line 15/10", "type": "in vivo, mouse", "settings": "data not shown", "protocol": "as §1\nAnalysis of transgene and mouse Cyp3a gene expression. β-galactosidase activity was visualised in slices and frozen sections of liver and other tissues by staining with X-gal (5-bromo-4-chloro-3-indolyl-β-D-galactopyranoside). […] The level of β-galactosidase activity was determined in whole liver homogenates [100 mg fresh tissue/ml 0.25M Tris-HCl (pH 7.3)] using the O-nitrophenyl-β-D-galactopyranoside (ONPG) assay according to standard techniques. After appropriate dilution the homogenate was incubated with β-galactosidase assay reagent (0.1 M sodium phosphate buffer (pH7.3)/1 mM MgCl2/50 mmol β-mercaptoethanol/0.88 mg/ml ONPG) at 37° C., quenched by the addition of 1 M Na2CO3 and the absorbance at 420 nm determined. […]"}, "[4]": {"test_system": "mouse Cyp3all gene", "settings": "in vivo, ip, 100 mg/kg", "protocol": "as §1\nFilters were stripped and reprobed with an 18S rRNA oligonucleotide to normalise loading."}},
  "note": "Entries after “also recorded” stand apart in the source; their conditions may differ.",
  "data": [
    {"compound": "Clc1ccccc1C(c1ccccc1)(c1ccccc1)n1ccnc1", "note": "[clotrimazole]", "values": [
      {"measurement": "relative degree of induction of transgene, β-galactosidase activity in liver lysates", "setting": "[1]", "result": "intermediate inducers"}
    ]},
    {"compound": "C[C@@H]1C[C@H]2[C@@H]3CCC4=CC(=O)C=C[C@]4(C)[C@@]3(F)[C@@H](O)C[C@]2(C)[C@@]1(O)C(=O)COP(=O)(O)O", "note": "[dexamethasone, dexamethasone phosphate]", "values": [
      {"measurement": "thickness of zone of X-gal positive hepatocytes", "setting": "[2]; line 9/4, 100 mg/kg, FIG. 4B", "result": "up to 10 cells"},
      {"measurement": "thickness of zone of hepatocytes expressing the transgene around the central vein (X-gal)", "setting": "[2]; line 9/4, low doses, FIG. 4B", "result": "1-2 cells"},
      {"measurement": "induction profile of transgene expression", "setting": "[3]", "result": "most potent activator"}
    ]},
    {"compound": "O=C1NC(=O)C(c2ccccc2)(c2ccccc2)N1", "note": "[phenyloin]", "values": [
      {"measurement": "relative degree of induction of transgene, β-galactosidase activity in liver lysates", "setting": "[1]", "result": "intermediate inducers"}
    ]},
    {"compound": "CC(=O)[C@H]1[C@H](C#N)C[C@H]2[C@@H]3CC=C4C[C@@H](O)CC[C@]4(C)[C@H]3CC[C@@]21C", "note": "[pregnenolone 16α-carbonitrile]", "values": [
      {"measurement": "hepatic transgene expression, X-gal staining of liver slices (cells containing β-galactosidase)", "setting": "[2]; female mice line 9/4, 100 mg/kg i.p. daily for 4 days, compared with corn oil treated mice", "result": "increased zone of blue staining cells"},
      {"measurement": "relative degree of induction of transgene, β-galactosidase activity in liver lysates", "setting": "[1]; 100 mg/kg", "result": "most potent xenobiotic activators; also recorded: most potent inducers"},
      {"measurement": "hepatic Cyp3all mRNA, females versus males", "setting": "[4]", "result": "higher levels of Cyp3all mRNA were observed in females than males"}
    ]},
    {"compound": "CC(=O)[C@H]1CC[C@H]2[C@@H]3CC=C4C[C@@H](O)CC[C@]4(C)[C@H]3CC[C@]12C", "note": "[pregnenolone]", "values": [
      {"measurement": "relative degree of induction of transgene, β-galactosidase activity in liver lysates", "setting": "[1]; 100 mg/kg", "result": "very weak inducers; also recorded: the induction was weak compared with xenobiotics"}
    ]}
  ]
}
